Laboratory results from US9045490B2, “Use of parthenolide derivatives as antileukemic and cytotoxic agents” (University of Kentucky, priority 2003, dated 2015).

Experiments:
[1] = test system: MDA-MB-231 breast cancer cells; test: TRAIL induced apoptosis assay (carboxyfluorescein-FLICA, FACScan); format: cell-based; settings: 2 or 5 μM pre-treatment two hours, then TRAIL 5 ng/ml or TRAIL-RII antibodies 10 ng/ml, 48 hours
Method: MDA-MB-231 breast cancer cells (2×10^5 cells in 60 mm plates) were treated first with 2 or 5 μM of DMAPT (LC-1). After two hours, TRAIL (TNF related-apoptosis-inducing-ligand, 5 ng/ml) or TRAIL-RII-activating antibodies (10 ng/ml) were added. After 48 hours of TRAIL or TRAIL-RII antibody treatment, cells were harvested and apoptosis was measured using carboxyfluorescein-FLICA assay. Briefly, both attached and floating cells were collected by trypsinization, incubated with carboxyfluorescein-labeled pan-caspase inhibitor FAM-VAD-FMK for 2 h at 37° C. Labeled cells were rinsed twice in PBS and resuspended in 300 μl of PBS containing 0.3 μg of propidium iodide. Apoptotic cells were identified by FACScan analysis. […] FAM-VAD-FMK stains apoptotic cells (upper left). Apoptotic cells that have lost plasma membrane integrity are stained by both FAM-VAD-FMK and propidium iodide (upper right). Necrotic cells are stained only by propidium iodide (lower right). MDA-MB-231 cells are relatively resistant to TRAIL.

[2] = test system: human monocyte cell line THP-1; test: cDNA array analysis of inflammation genes; format: cell-based
Method: Total cellular RNA was extracted from the human monocyte cell line THP-1 under three conditions 2 hours after Time 0:
1) Control was added at Time 0 […]
RNA was extracted using RNeasy Min Kit (Qiagen, USA) according to the manufacturer's instructions. The Human Drug Targets for Inflammation and Immunomodulation Q series GE array kit (HS-048-12) was obtained from SuperArray Bioscience Corporation (Frederick, Md.). The kit determines expression of 96 genes that are associated with inflammation. RNA from respective samples was used as a template to generate biotin labeled cDNA probes using GEArray Ampolabelling RT kit (SuperArray, Bioscience Corp., USA). The cDNA probes corresponding to the mRNA population were then denatured and hybridization was carried out in GEHyb solution to nylon membranes spotted with gene specific fragments. Membranes were then washed in 2×SSC, 1% SDS twice for 15 minutes each, followed by 0.1 SSC, 0.5% SDS twice for 15 minutes each. Chemiluminescence was used to visualize the expression levels of each transcript and the results were quantified with the GEArray Analyzer. The change in a given gene transcript was estimated by normalizing the signal intensities with the signal derived from PPIA and with minimum background subtraction.

[3] = DMAPT (10 micromoles) pre-treatment for 2 hours then 1 hour treatment of LPS (10 nM)

C/C1=C\CC[C@@]2(C)O[C@@H]2[C@H]2OC(=O)[C@H](CN(C)C)[C@@H]2CC1 [DMAPT, 11S,11,13-Dihydro,13-dimethylaminoparthenolide]
sensitisation to TRAIL or TRAIL-RII activating antibody-induced apoptosis [1]: became sensitive
% Change of Genes: Intercellular Adhesion Molecule 1 [2, 3]: 58%
% Change of Genes: Nitric oxide synthase 2A (inducible) [2, 3]: 48%
% Change of Genes: Tumor necrosis factor (ligand) superfamily, member 5 [2, 3]: 23%
transcription of tumor necrosis factor (TNF), relative to control ([2]; pretreatment with DMAPT, then LPS): 2 % of control
